Measurements: BindingDB's records for doi:10.7270/Q2QN656Q (The Scripps Research Institute Molecular Screening Center, 2010)
“And” between values parts separate entries of the source, which are not always exact repeats. Identical values can stand only once.

target: Serine/threonine-protein phosphatase PP1-alpha catalytic subunit (Homo sapiens, UniProt P62136); test: PP1 phosphatase inhibitors, dose response, biochemical, fluorescence (AID 2403)
Sequence (P62136 whole entry): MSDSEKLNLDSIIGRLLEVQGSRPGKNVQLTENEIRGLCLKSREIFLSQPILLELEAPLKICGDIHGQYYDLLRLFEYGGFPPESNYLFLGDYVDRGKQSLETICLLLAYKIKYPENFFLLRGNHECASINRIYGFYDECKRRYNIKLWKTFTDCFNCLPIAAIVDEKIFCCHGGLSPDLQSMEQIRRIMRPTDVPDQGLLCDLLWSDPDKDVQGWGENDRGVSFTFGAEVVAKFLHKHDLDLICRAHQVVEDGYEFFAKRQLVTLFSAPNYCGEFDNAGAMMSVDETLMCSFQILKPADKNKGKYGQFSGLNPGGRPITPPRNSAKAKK

In order of falling IC50:
1. CC1(C)Cc2c(nn(-c3ccccc3)c(=N)c2C#N)CO1  55.8 µM
2. CCOC(=O)c1sc(N2C(=O)C(=O)C(C(=O)c3ccco3)C2c2cccc([N+](=O)[O-])c2)nc1C (stereo not given) [MLS001082998]  11.8 µM
3. COc1ccc(CN=Nc2cc(C)nc(-n3nc(C)cc3C)n2)c(OC)c1 [MLS000589396]  6.68 µM
4. COc1ccc(CN=Nc2cc(C)nc(-n3nc(C)cc3C)n2)cc1 [SMR000212741]  5.81 µM

`O=C1OC(=O)[C@H]2[C@@H]1[C@@H]1CC[C@H]2O1` [(1R,2S,6R,7S)-4,10-Dioxa-tricyclo[5.2.1.0*2,6*]decane-3,5-dione] was tested, and the IC50 was 4.12 µM and 2.83 µM.
